Laboratory results: US20060183909A1, “Compositions derived from quinoline and quinoxaline, preparation and use thereof” (priority 2001, published 2006)

tested on: xanthurenic acid receptor; assay: Screening: displacement of [3H]-XA binding to synaptic membranes at a fixed concentration; details: not given
Protocol: If this concentration produces the same or greater displacement than the same concentration of non-radiolabelled XA, then an IC50 is determined. […] The incubation time is 25 min. […] The filters are placed in scintillation vials to which 5 ml of Rotiszint® (Roth) are added and the vials are counted in a Beckman LS6000sc liquid scintillation counter. Specific binding is given as the difference between total binding and nonspecific binding. The percentage inhibition of binding that the synthetic compounds produce is calculated for each compound in relation to its positive control.

Row | Structure (SMILES) | effect on xanthurenic acid binding, in words
1 | O=C(O)c1cc(=O)c2ccccc2[nH]1 [Kynurenic acid, reference compound] | increase the binding of xanthurenic acid

same assay, conditions: compound at 10 μM; 200 nM [3H]-XA, synaptic membranes

Row | Structure (SMILES) | real increase in total binding (potentiation)
2 | O=C(O)c1cc(=O)c2ccccc2[nH]1 [Kynurenic acid, reference compound] | (+70% real increase

same assay, conditions: compound at 10 μM; 200 nM [3H]-XA, synaptic membranes; xanthurenic acid set arbitrarily to 100%

Row | Structure (SMILES) | % inhibition of XA binding at 10 μM*
3 | O=C(O)c1cc(O)c2c(Cl)cc(Cl)c(O)c2n1 [Compound 3i, 4,8-dihydroxy-5,7-dichloro-quinoline-2-carboxylic acid] | 163%
4 | N#Cc1cc(Br)cc2c(O)cc(C(=O)O)nc12 [Compound 63c, 6-bromo-8-cyano-4-hydroxy-quinoline-2-carboxylic acid] | 46%
5 | COc1ccc(Br)c2ccc(C(=O)O)nc12 [Compound 4g, 8-methoxy-5-bromo-quinoline-2-carboxylic acid] | 0%
6 | N#Cc1cccc2c(O)c(C#Cc3ccccc3)c(C(=O)O)nc12 [Compound 67c, 8-cyano-4-hydroxy-3-phenylethynyl-quinoline-2-carboxylic acid] | 0%
7 | O=C(O)c1nc2c(O)c(Br)ccc2c(O)c1Br [Compound 56c, 3,7-dibromo-4,8-dihydroxy-quinoline-2-carboxylic acid] | 112%
8 | O=C(O)CC1Nc2c(O)cccc2NC1=O (stereo not drawn) [Compound 60c, [8-(hydroxy)-3-oxo-3,4-dihydroquinoxaline-2(1H)-yl]acetic acid] | 69%
9 | Cc1cc(O)c2nc(C(=O)O)cc(O)c2c1 [Compound 3n, 4,8-dihydroxy-6-methyl-quinoline-2-carboxylic acid] | 21.2%
10 | O=C(O)c1cc(=O)c2ccccc2[nH]1 [Kynurenic acid, reference compound] | Potentiation
11 | CCCCCCCc1cc(O)c2nc(C(=O)O)cc(O)c2c1 [Compound 22b, 4,8-dihydroxy-6-heptyl-quinoline-2-carboxylic acid] | 38%
12 | COc1cccc2ccc(C(=O)O)nc12 | 13%
13 | CNc1cc(C(=O)O)nc2c(N)cccc12.Cl [Compound 38d, 4-(N-methylamino)-8-amino-quinoline-2-carboxylic acid hydrochloride] | 72%
14 | O=C(O)c1cc(O)c2cc(CCc3ccccc3)cc(O)c2n1 [Compound 22a, 4,8-dihydroxy-6-phenethyl-quinoline-2-carboxylic acid] | 54%
15 | Cl.O=C(O)c1cc(O)c2cc(C3CCCCN3)cc(O)c2n1 (stereo not drawn) [Compound 61b, 4,8-dihydroxy-6-piperidin-2-yl-quinoline-2-carboxylic acid hydrochloride] | 97%
16 | CN(C)c1cccc2c(O)cc(C(=O)O)nc12 [Compound 41d, 8-dimethylamino-4-hydroxy-quinoline-2-carboxylic acid] | 43%
17 | Nc1cc(C(=O)O)nc2c(N)cccc12 [17'b, 4,8-diamino-quinoline-2-carboxylic acid] | 7.7%
18 | O=C(O)c1cc(O)c2cc(-c3ccccc3)cc(O)c2n1 [Compound 19f, 4,8-dihydroxy-6-pheenyl-quinoline-2-carboxylic acid] | 163.1%
19 | Cl.O=C(O)c1cc(O)c2cccc(N3CCCCC3)c2n1 [Compound 102b, 4-hydroxy-8-(piperidin-1-yl)-quinoline-2-carboxylic acid hydrochloride] | 92%
20 | N#Cc1cc(CCc2ccccc2)cc2c(O)cc(C(=O)O)nc12 [Compound 65d, 8-cyano-4-hydroxy-6-phenethyl-quinoline-2-carboxylic acid] | 18%
21 | CCCc1cc(O)c2nc(C(=O)O)cc(O)c2c1 [Compound 19r, 4,8-dihydroxy-6-propyl-quinoline-2-carboxylic acid] | 58.1%
22 | Nc1cc(CCc2ccccc2)cc2c(O)cc(C(=O)O)nc12 [Compound 118c, 6-phenylethyl-8-amino-4-hydroxy-quinoline-2-carboxylic acid] | 66%
23 | NCCCc1cc(N)c2nc(C(=O)O)cc(O)c2c1 [Compound 121c, 6-(3′-aminopropyl)-8-amino-4-hydroxy-quinoline-2-carboxylic acid] | 120%
24 | O=C(O)c1cc(O)c2c(Br)ccc(O)c2n1 [Compound 3c, 4,8-dihydroxy-5-bromo-quinoline-2-carboxylic acid] | 42%

Row | Structure (SMILES) | % inhibition of XA binding at 10 μM*
25 | O=C(O)c1cc(O)c2cccc(CCc3ccccc3)c2n1 [Compound 111c, 4-hydroxy-8-phenylethyl-quinoline-2-carboxylic acid] | 109%
26 | Cl.Nc1cccc2c(CCc3ccccc3)cc(C(=O)O)nc12 [Compound 94c, 8-amino-4-(2-phenyleth-1-yl)-quinoline-2-carboxylic acid hydrochloride] | 37%
27 | CCc1cc(C#N)c2nc(C(=O)O)cc(O)c2c1 [Compound 69d, 8-cyano-6-ethyl-4-hydroxy-quinoline-2-carboxylic acid] | 26%
28 | O=C(O)c1cc(O)c2c(C(F)(F)F)ccc(O)c2n1 [Compound 98c, 4,8-dihydroxy-5-trifluoromethyl-quinoline-2-carboxylic acid] | 94%
29 | CN1CCN(c2cc(C(=O)O)nc3c(O)cccc23)CC1.Cl [Compound 110c, 8-hydroxy-4-(4-methyl-piperazin-1-yl)-quinoline-2-carboxylic acid hydrochloride] | 166%
30 | CN1CCN(c2cccc3c(O)cc(C(=O)O)nc23)CC1.Cl [Compound 107b, 8-(4-methyl-piperazin-1-yl)4-hydroxy-quinoline-2-carboxylic acid hydrochloride] | 43%
31 | Cl.O=C(O)c1cc(O)c2cccc(N3CCN(Cc4ccccc4)CC3)c2n1 [Compound 105b, 8-(4-benzyl-piperazin-1-yl)-4-hydroxy-quinoline-2-carboxylic acid hydrochloride] | 66%
32 | Cl.O=C(O)c1cc(O)c2cccc(Nc3ccccn3)c2n1 [Compound 109b, 4-hydroxy-8-(pyridin-2-yl-amino)-quinoline-2-carboxylic acid hydrochloride] | 112%
33 | CNc1cccc2c(O)cc(C(=O)O)nc12.Cl [Compound 103b, 4-hydroxy-8-(methyl)amino-quinoline-2-carboxylic acid hydrochloride] | 3%
34 | O=C(O)c1cc(O)c2cccc(F)c2n1 [Compound 36c, 8-fluoro-4-hydroxy-quinoline-2-carboxylic acid] | 94%
35 | O=C(O)c1nc2c(O)cccc2[nH]c1=O [Compound 59c, 8-hydroxy-3-oxo-3,4-dihydroquinoxaline-2-carboxylic acid] | 97%
36 | CN1CCN(c2cc(N)c3nc(C(=O)O)cc(O)c3c2)CC1.Cl [Compound 124b, 6-N-(N-methylpiperazinyl)-8-amino-4-hydroxy-quinoline-2-carboxylic acid hydrochloride] | 109%
37 | NC(=O)c1cccc2c(O)cc(C(=O)O)nc12 [Compound 37c, 8-carboxamide-4-hydroxy-quinoline-2-carboxylate acid] | 77%
38 | Nc1ccc(-c2ccccc2)c2c(O)cc(C(=O)O)nc12 [Compound 73c, 5-phenyl-8-amino-4-hydroxy-quinoline-2-carboxylic acid] | 69%
39 | N#Cc1cc(-c2ccccc2)cc2c(O)cc(C(=O)O)nc12 [Compound 64b, 8-cyano-4-hydroxy-6-phenyl-quinoline-2-carboxylic acid] | 14%
40 | CC(C)(C)C(=O)Nc1cccc2c(O)cc(C(=O)O)nc12 [Compound 28b, 8-pivaloylamino-4-hydroxy-quinoline-2-carboxylic acid] | 0%
41 | O=C(O)c1cc(O)c2c(CO)ccc(O)c2n1 [Compound 3g, 4,8-dihydroxy-5-hydroxymethyl-4-quinoline-2-carboxylic acid] | 84%
42 | Cl.O=C(O)c1cc(O)c2cccc(N3CCOCC3)c2n1 [Compound 104b, 4-hydroxy-8-(morpholin-1-yl)-quinoline-2-carboxylic acid hydrochloride] | 40%
43 | O=C(O)c1nc2c(O)cccc2c(O)c1CN1CCOCC1 [Compound 39b, 3-(N-morpholinomethyl)-4,8-dihydroxy-quinoline-2-carboxylic acid] | 77%
44 | O=C(O)c1nc2c(OCc3ccccc3)cccc2c(O)c1CN1CCCC1 [Compound 40a, 3-(N-pyrrolidinomethyl)-8-benzyloxy-4-hydroxy-quinoline-2-carboxylic acid] | 83%
45 | Cl.Nc1ccc(N2CCCCC2)c2c(O)cc(C(=O)O)nc12 [Compound 77c, 5-(piperidin-1-yl)-8-amino-4-hydroxy-quinoline-2-carboxylic acid hydrochloride] | 6%

same assay, conditions: compound at 50 μM; 200 nM [3H]-XA, synaptic membranes; xanthurenic acid set arbitrarily to 100%

Row | Structure (SMILES) | % inhibition of XA binding at 50 μM* [%]
46 | O=C(O)c1cc(O)c2c(Cl)cc(Cl)c(O)c2n1 [Compound 3i, 4,8-dihydroxy-5,7-dichloro-quinoline-2-carboxylic acid] | 80

molecular target: xanthurenic acid receptor; assay: Competition protocol, IC50 determination against [3H]-XA binding on synaptic membranes; details: single value; inhibition of binding of 200 nM [3H]-XA, synaptic membranes; read-out: IC50
Protocol: Binding is carried out in 50 mM Pipes buffer pH 7.4 at 0° C. […] If the compound reversibly binds to the binding site of [^3H]-XA, the two ligands will compete with each other and a binding displacement curve for [^3H]-XA can be plotted against the concentration of the competitor molecule. The incubation time is 25 minutes, followed by filtration.

Row | Structure (SMILES) | IC50 [µM]
47 | O=C(O)c1cc(O)c2c(Cl)cc(Cl)c(O)c2n1 [Compound 3i, 4,8-dihydroxy-5,7-dichloro-quinoline-2-carboxylic acid] | 4.6
48 | O=C(O)c1cc(O)c2cc(Br)cc(O)c2n1 [Compound 3k, 4,8-dihydroxy-6-bromo-quinoline-2-carboxylic acid] | 12
49 | O=C(O)c1cc(O)c2cc(-c3ccccc3)cc(O)c2n1 [Compound 19f, 4,8-dihydroxy-6-pheenyl-quinoline-2-carboxylic acid] | 5.2

same assay, conditions: two site binding model, first (lower) IC50; 200 nM [3H]-XA, synaptic membranes; read-out: IC50 (μM), first of two values

Row | Structure (SMILES) | IC50 [µM]
50 | O=C(O)c1ccc2cccc(O)c2n1 | 0.09

same assay, conditions: two site binding model, second (higher) IC50; 200 nM [3H]-XA, synaptic membranes; read-out: IC50 (μM), second of two values

Row | Structure (SMILES) | IC50 [µM]
51 | O=C(O)c1ccc2cccc(O)c2n1 | 12.3
